Measured values taken from publication PMC6213047, “Design of Antibacterial Agents: Alkyl Dihydroxybenzoates against Xanthomonas citri subsp. citri” (International Journal of Molecular Sciences, 2018).
Entries after “also recorded” stand apart in the source; their conditions may differ. Read-outs that look alike come from different tables or passages of the source.

Columns and labels:
[1] = tested on: Xcc cells membrane integrity; test: Cellular membrane permeability of Xcc, Live/Dead BacLight kit; format: cell-based, Xanthomonas citri subsp. citri; conditions: compounds at ¼ MIC, 15 min; nisin as positive control
Experimental: Membrane integrity was measured by using the commercial assay Live/Dead BacLight® bacterial viability kit (Invitrogen, Carlsbad, CA, USA). We observed cells with intact membrane in fluorescent blue (SYTO 9) and cells with disturbance or affected membrane integrity in red or pink (propidium iodide). The data analyses were plotted as the percentage of cells permeated by propidium iodide (Figure 2).
Phase contrast microscopy was used to observe changes in cell shape and signs of cell division alteration using an objective lens with a magnification of 100×. To evaluate the Xcc cells’ membrane integrity, the BacLight® kit was used. Mixtures of SYTO 9 dyes and propidium iodide (PI). SYTO 9 (blue) can stain nucleic acids in general—with intact or damaged membranes. On the other hand, PI (red) penetrates only the bacteria with damaged membranes, causing overlap in the fluorescence of SYTO 9. Therefore, using a mixture of the dyes, the bacteria with disturbed cell membranes are stained in fluorescent red and the intact cell membranes are stained in fluorescent blue. […] Cellular immobilization was performed on slides containing 1% agarose gel in 0.85% saline buffer. The slides were prepared with 1.0 mL of the agarose solution, which was dispersed in optical microscopy slides and on each slide another slide was placed so that the gel continued like a thin film and was of homogeneous height. The slides were dried at room temperature for approximately 20 min and opened at the time of use, when 10 μL of the cell suspension was deposited in the center and covered with the cover slip. The cells were visualized using the Olympus BX-61 optical microscope equipped with OrcaFlash 2.8 monochrome camera (Hamamatsu, Shizuoka, Japan). Cell Sensation software v11 (Olympus) was used to document and analyze the images.

[2] = tested on: ACHN (human renal adenocarcinoma cell line); test: Cytotoxicity MTT assay, ACHN; format: cell-based
Experimental: This test is based on the reduction of 3-(4,5-dimethyl-2-thiazolyl)-2,5-diphenyl-2-tetrazole bromide by viable cells, with formation of violet insoluble formazan crystals. Five cell lines were used in order to evaluate the cytotoxic effect of the compounds as a whole.
The cytotoxicity of compounds 4, 16, 28 and copper oxychloride was determined by MTT assay. The cell lines used were HaCaT (human keratinocyte cell line—CLS 300493), Huh-7.5 (human hepatoma cell line—ATCC® PTA-8561), MRC-5 (human lung fibroblast cell line—ATCC CCL-171), VERO (monkey kidney epithelial cell line—ATCC® CCL81) and ACHN (human renal adenocarcinoma cell line—ATCC® CRL1611). The cells were cultured in appropriate medium recommended by the American Type Culture Collection.
The assay was performed with the concentration of 10^4 cells for both cell lines, distributed in 96-well plates and incubated at 37 °C in a 5% CO2 controlled atmosphere oven for 24 h. After the incubation period, the cells were treated with the compounds with a range of 1.56–200 μmol L^−1 and incubated for 24 h. The supernatant was removed, then 100 μL of 3-(4,5-dimethyl-2-thiazolyl)-2,5-diphenyl-2H-tetrazolium (MTT) salt at 1 mg mL^−1 diluted in DMEM medium (Gibco Life Technologies, Gaithersburg, MD, USA) was added and incubated for 30 min. Subsequently, the MTT was removed, then 100 μL of DMSO under agitation for 5 min at 60 rpm was added. The plates were read at 570 nm in a FLUOstar Omega/BMG LABTECH plate reader, Offenburg, BW, DE. We carried out the experiments in triplicate and three independent events for statistical analysis (GraphPad Software, San Diego, CA, USA). The MTT assay is based on the tetrazolium salt (yellow-colored) reduction to formazan (purple-colored) by metabolically active cells.

[3] = tested on: FtsZ from Xcc; test: Inhibition of GTPase activity, continuous substrate regeneration assay; format: biochemical, Xanthomonas citri subsp. citri; conditions: compounds at MIC values, Xcc-FtsZ 5 μM, 400 μM GTP
Experimental: The cell division process is mediated by the formation of the Z ring, coordinated by GTP hydrolysis activity of FtsZ [33, 34, 35].
The evaluation of the inhibition of GTPase activity was measured by the characterization of the FtsZ from Xcc. This methodology is known as continuous assay of substrate regeneration and consists of the hydrolysis of guanosine triphosphate (GTP) in guanosine diphosphate (GDP) and inorganic phosphate. The GTP is regenerated by the enzyme pyruvate kinase which, in turn, converts the phosphoenol pyruvate (PEP) to pyruvate. The pyruvate produced by this reaction is reduced to lactate by lactate dehydrogenase, using NADH [64].
Reagent stocks were dispersed in Tris 50 buffer (1:1 tris:KCl at pH 7.9). We also prepared two mixtures: Mixture 1—magnesium chloride (MgCl2), pyruvate kinase/lactate dehydrogenase, phosphoenol-pyruvate, NADH and GTP, adding or not the test compounds to MIC values; and mixture 2—Xcc-FtsZ. The assay was performed in a 96-well plate, 75 μL of mixture 1 was pipetted into a well and incubated for 5 min at 30 °C; then 75 μL of mixture 2 was added and the readings started. A Biotek Synergy MX plate reader was used. The readings were performed every 5 s, at the wavelength of 340 nm at 30 °C, under constant stirring.
The total volume of 150 μL presented the following concentrations: 5 mM MgCl2; pyruvate kinase/lactate dehydrogenase 20 U mL^−1; 2 mM phosphoenol-pyruvate; 1 mM NADH; 400 μM GTP; Xcc-FtsZ 5 μM.

[4] = Homo sapiens, ACHN, 24 h, read-out: IC50 ACHN, MTT, 24 h treatment
[5] = MTT, 24 h treatment, read-out: IC50 ACHN

Structure (SMILES) | percentage of cells permeated by propidium iodide [1] | IC50 [2, 4] | IC50 [2, 5] | effect on GTPase activity of FtsZ [3]
CCCCCCCOC(=O)c1ccc(O)cc1O [Compound 4] | 13.9% | > 100 µM | 153 ± 7.07 µM | inhibition of FtsZ GTPase activity; also recorded: decay in the GTPase activity of FtsZ
CCCCCCCOC(=O)c1cc(O)ccc1O [Compound 16] | 41.3% | > 100 µM | 140 ± 7.56 µM | inhibition of FtsZ GTPase activity; also recorded: decay in the GTPase activity of FtsZ
CCCCCCCOC(=O)c1ccc(O)c(O)c1 [Compound 28] | 93.8% | > 100 µM | 114 ± 9.97 µM | inhibition of FtsZ GTPase activity; also recorded: decay in the GTPase activity of FtsZ
